Measurements: patent US20150352134A1, “COMPOSITION FOR TOPICAL SKIN APPLICATION CONTAINING GINSENOSIDE F2 DERIVED FROM HYDROPONIC GINSENG” (AMOREPACIFIC CORPORATION, priority 2012, published 2015)

What was measured:
tyrosinase [1] = assay: Tyrosinase inhibitory effect; format: biochemical, mushrooms; settings: 37° C., absorbance 475 nm
Description: The tyrosinase as used herein is an enzyme extracted from mushrooms and purchased from Sigma-Aldrich. Firstly, tyrosine as a substrate is dissolved in distilled water to prepare a 0.3 mg/mL solution, which is added dropwise to a test tube at an amount of 1.0 mL each time. To the solution are added 1.0 mL of a potassium phosphate buffer solution (0.1 mol, pH 6.8) and 0.7 mL of distilled water.
0.2 mL of the sample solution is added to the reactant solution and then allowed to have a reaction in a thermostat container at 37° C. for 10 minutes. In this regards, the control is the reactant solution containing 0.2 mL of a solvent alone in place of each sample solution. The positive control uses ascorbic acid. 0.1 mL of a 2500 unit/mL tyrosinase solution is added to the reactant solution, which is then allowed to have a reaction again in a thermostat container at 37° C. for 10 minutes. The test tube filled with the reactant solution is put into an ice water to cause quenching and thus stop the reaction. The absorbance at 475 nm is measured with a photoelectric spectrophotometer. The tyrosinase inhibitory effect is calculated according to the following mathematical formula 3.

Aspergillus niger = assay: Antibacterial effect, MIC; format: cell-based; settings: 48 hours, 25° C.
Description: (§1) The antibacterial testing is carried out in order to evaluate the antibacterial effect of ginsenoside F2. The detailed testing method is as follows. Staphylococcus aureus, Escherichia coli, and pseudomonas aeruginosa strains are cultured with a tryptic soy broth, and candida albicans and aspergillus niger strains are cultured with sabouraud dextrose broth. The test bacterial liquid is the 1/100 (1/10 for candida albicans strain) diluted solution of the culture medium diluted with each medium. For aspergillus niger, the test bacterial liquid is the spore suspension prepared to 2×10^8 cfu/ml. 0.15 ml of the test bacterial liquid is added to 15 ml of each culture medium to prepare a well-blended diluted solution. 16 μl of the sample is put into each well on the first row of a 96-well plate, and 184 μl of the diluted solution is added to each well on the first row. Then, 100 μl of the diluted solution is put into each of the other wells. The mixed solution of the first row is sufficiently stirred, and 100 μl of the mixed solution is added to each well on the second row of the 96-well plate and stirred sufficiently. 100 μl of the mixed solution on the second row is taken and added to each well on the third row to achieve two-fold serial dilution. Straphylococcus aureus, Escherichia coli, and Pseudomonas aeruginosa strains are cultured in a thermostat container at 32°, and Candida albicans and Aspergillus niger strains are cultured in a thermostat container at 25° C. 48 hours later, the cell proliferation is determined by the turbidity index and microscopic observation to determine the minimum inhibitory concentration (MIC).

Escherichia coli = assay: Antibacterial effect, MIC; format: cell-based; settings: 48 hours, 32°
Description: as §1

Pseudomonas aeruginosa = assay: Antibacterial effect, MIC; format: cell-based; settings: 48 hours, 32°
Description: as §1

Candida albicans = assay: Antibacterial effect, MIC; format: cell-based; settings: 48 hours, 25° C.
Description: as §1

B16/F10 melanoma cells = assay: Melanogenesis inhibition in B16/F10 melanoma cells; format: cell-based; settings: sample containing 0.001 wt. % of test substance; 3-day cultivation
Description: As a test substance, a sample containing 0.001 wt. % of ginsenoside F2 or kojic acid is added to a culture medium of B16/F10 melanoma cells (available from Korean Cell Line Bank) at a predetermined concentration. The culture medium is eliminated after 3-day cultivation. The cells are washed with PBS and dissolved in 1N NaOH. Then, the absorbance at 405 nm is measured. The control is the cells not treated with any test substance. In comparison with the melanin content in the control group, the inhibitory ability of each test substance against melanogenesis is measured. […] [formula]

tyrosinase [2] = assay: Tyrosinase expression in melanocytes (Western Blot); format: cell-based; settings: 501me1 cell line, IBMX 100 μM, ginsenoside 10 ppm
Description: 501me1 cell line is injected in each well of a 6-well microtiter plate at a rate of 500,000 cells/well. The cell line in each well is treated with 0.1% of DMSO as the negative control group, 100 μM of IBMX as the positive control group, or ginsenoside 10 ppm of F2 as the test group, and cultured at 37° C. for 24 hours, 48 hours, or 72 hours, to obtain proteins. The proteins thus obtained are subjected to Western Blot using MITF and tyrosinase antibodies. Protein extraction and Western Blot are performed using the standard methods known in the art.

interleukin-8 (IL-8) = assay: IL-8 generation inhibition in normal human skin keratinocytes (ELISA); format: cell-based; settings: stimulation with PGSA / LPS, 24 hours
Description: One day before the testing, normal human skin keratinocytes (NHEK) purchased from Lonza are injected into a 96-well plate at a rate of 5×10^4 cells/well and cultured in an incubator under conditions of 5% CO2 and 37° C. for 24 hours. After 24 hours, the culture plate is washed with PBS twice, and the used culture medium is replaced with a serum-free keratinocyte basement medium. Ginsenoside F2 is injected into each well according to the concentration of Table 24 and allowed to react for 30 minutes. Then, the keratinocytes are treated separately with 10 μg/ml of PGSA, 50 μg/ml of PGSA, and a mixture of PGSA (50 μg/ml) and LPS (1 μg/ml). In this regard, PGSA (peptidoglycan from S. aureus) is stapylococcus-derived peptidoglycan that is a principal component of the cell membrane of gram-positive (+) bacteria, and the components of the cell membrane of bacteria are known to cause inflammation. Particularly, it is reported that about 90% of patients with atopic dermatitis are susceptible to secondary infection due to staphylococcus. LPS (lipopolysaccharide) is a principal component of the cell membrane of gram-negative (−) bacteria and reportedly a main cause of inflammation. After the keratinocytes are cultured in an incubator under conditions of 5% CO2 and 37° C. for 24 hours, the culture medium is collected and subjected to ELISA for interleukin-8 (IL-8). The ELISA is carried out according to the testing method as instructed by the manufacturer (BD Science).

Compound | Tyrosinase inhibition rate (%) (tyrosinase [1]) | MIC (%) Aspergillus niger (Aspergillus niger) | MIC (%) Escherichia coli (Escherichia coli) | MIC (%) Pseudomonas aeruginosa (Pseudomonas aeruginosa) | MIC (%) Candida albicans (Candida albicans) | Melanogenesis inhibition rate (%) (B16/F10 melanoma cells) | Tyrosinase (Western Blot, in comparison with 100 of the negative control group) (tyrosinase [2]; 24 hrs) | Tyrosinase (Western Blot, in comparison with 100 of the negative control group) (tyrosinase [2]; 48 hrs) | Tyrosinase (Western Blot, in comparison with 100 of the negative control group) (tyrosinase [2]; 72 hrs) | IL-8 secretion (interleukin-8 (IL-8); 5 ppm) | IL-8 secretion (interleukin-8 (IL-8); 25 ppm) | IL-8 secretion (interleukin-8 (IL-8); 50 ppm)
CC(C)=CCC[C@](C)(O[C@@H]1O[C@H](CO)[C@@H](O)[C@H](O)[C@H]1O)[C@H]1CC[C@]2(C)[C@@H]1[C@H](O)C[C@@H]1[C@@]3(C)CC[C@H](O[C@@H]4O[C@H](CO)[C@@H](O)[C@H](O)[C@H]4O)C(C)(C)[C@@H]3CC[C@]12C [Ginsenoside F2, ginsenoside F2] | 69% | >2% | 0.13% | 0.09% | >4% | 72% | 150 | 182 | 211 | 1209.66 pg/mL | 1118.80 pg/mL | 1110.29 pg/mL
CC(C)=CCC[C@](C)(O[C@@H]1O[C@H](CO[C@@H]2O[C@H](CO)[C@@H](O)[C@H](O)[C@H]2O)[C@@H](O)[C@H](O)[C@H]1O)[C@H]1CC[C@]2(C)[C@@H]1[C@H](O)C[C@@H]1[C@@]3(C)CC[C@H](O[C@@H]4O[C@H](CO)[C@@H](O)[C@H](O)[C@H]4O[C@@H]4O[C@H](CO)[C@@H](O)[C@H](O)[C@H]4O)C(C)(C)[C@@H]3CC[C@]12C [Ginsenoside Rb1] | 60% |  |  |  |  | 61% | 149 | 165 | 189 |  |  | 
